Results from BindingDB's records for doi:10.1021/jm0603116 (Infinity Pharmaceuticals, 2006).

Target: Endoplasmin (Canis lupus familiaris, UniProt P41148)
Assay: Inhibition of BODIPY-AG binding to dog Grp94

Endoplasmin, sequence (P41148 whole entry): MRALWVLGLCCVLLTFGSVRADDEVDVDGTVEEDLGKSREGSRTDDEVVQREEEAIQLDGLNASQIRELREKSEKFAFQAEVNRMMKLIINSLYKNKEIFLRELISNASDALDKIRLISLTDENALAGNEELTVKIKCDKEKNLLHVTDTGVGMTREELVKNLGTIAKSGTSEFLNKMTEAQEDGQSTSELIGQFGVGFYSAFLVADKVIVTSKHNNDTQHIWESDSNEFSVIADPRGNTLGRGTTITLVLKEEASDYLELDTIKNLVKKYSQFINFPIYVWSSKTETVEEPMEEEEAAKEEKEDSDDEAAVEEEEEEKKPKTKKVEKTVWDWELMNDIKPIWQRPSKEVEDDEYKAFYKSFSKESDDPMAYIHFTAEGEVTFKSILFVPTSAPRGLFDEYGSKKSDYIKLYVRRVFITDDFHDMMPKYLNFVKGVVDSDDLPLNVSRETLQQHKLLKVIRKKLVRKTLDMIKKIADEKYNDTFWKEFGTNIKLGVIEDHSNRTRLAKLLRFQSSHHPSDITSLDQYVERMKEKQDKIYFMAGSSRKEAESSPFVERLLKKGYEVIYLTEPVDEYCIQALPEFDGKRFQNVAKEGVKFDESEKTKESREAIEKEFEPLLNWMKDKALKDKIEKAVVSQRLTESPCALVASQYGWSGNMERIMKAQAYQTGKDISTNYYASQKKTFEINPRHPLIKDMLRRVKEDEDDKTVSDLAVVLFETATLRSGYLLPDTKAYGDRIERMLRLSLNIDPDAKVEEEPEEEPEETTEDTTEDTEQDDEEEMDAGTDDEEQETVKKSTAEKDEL

For `CO[C@H]1C=CC=C(C)C(=O)Nc2cc(O)c(N)c(c2O)C=C(C)C[C@H](OC)[C@H](O)[C@@H](C)/C=C(\C)[C@@H]1OC(N)=O` [17-amino-17-demethoxygeldanamycin], the EC50 was 48 nM.
